PMC11167047 (Cell Death Discovery, 2024)

Legend:
Test in all cases: kinome screen (33PanQinase)
Assay type in all cases: biochemical
[1] = target: T1, ABL1 (Homo sapiens, UniProt P00519)
T1 construct: purchased Reaction Biology Europe GmbH (formerly ProQinase)
Procedure: (§1) The Kinome Screening was performed by Reaction Biology Europe GmbH (http://reactionbiology.com; Freiburg i. Br., Germany).

[2] = target: T2, AXL (Homo sapiens, UniProt P30530)
T2 construct: purchased Reaction Biology Europe GmbH (formerly ProQinase)
T2 sequence (P30530 26-894): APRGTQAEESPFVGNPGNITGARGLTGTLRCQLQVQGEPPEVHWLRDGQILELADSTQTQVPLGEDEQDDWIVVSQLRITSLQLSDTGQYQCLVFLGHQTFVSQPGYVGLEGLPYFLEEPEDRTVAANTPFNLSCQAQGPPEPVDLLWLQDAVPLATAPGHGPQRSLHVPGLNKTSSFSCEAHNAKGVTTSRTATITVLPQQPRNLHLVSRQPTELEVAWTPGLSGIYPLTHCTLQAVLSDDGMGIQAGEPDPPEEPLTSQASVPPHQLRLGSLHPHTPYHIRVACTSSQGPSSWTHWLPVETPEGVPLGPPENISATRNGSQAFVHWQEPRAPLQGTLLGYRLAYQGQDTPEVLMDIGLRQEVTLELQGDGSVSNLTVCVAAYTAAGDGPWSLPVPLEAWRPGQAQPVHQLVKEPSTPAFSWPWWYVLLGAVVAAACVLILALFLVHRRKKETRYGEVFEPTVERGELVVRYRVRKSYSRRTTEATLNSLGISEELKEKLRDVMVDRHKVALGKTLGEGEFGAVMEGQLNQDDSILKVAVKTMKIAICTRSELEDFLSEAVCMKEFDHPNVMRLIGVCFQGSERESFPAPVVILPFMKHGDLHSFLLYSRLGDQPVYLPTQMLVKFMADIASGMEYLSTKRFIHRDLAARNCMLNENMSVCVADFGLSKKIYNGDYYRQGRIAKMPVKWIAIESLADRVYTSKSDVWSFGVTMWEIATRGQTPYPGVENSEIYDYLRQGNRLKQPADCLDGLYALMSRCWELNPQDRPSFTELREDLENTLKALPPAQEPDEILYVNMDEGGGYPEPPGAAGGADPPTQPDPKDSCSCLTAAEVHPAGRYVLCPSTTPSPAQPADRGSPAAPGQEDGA
Procedure: as §1

[3] = target: T3, DAPK1 (Homo sapiens, UniProt P53355)
T3 construct: purchased Reaction Biology Europe GmbH (formerly ProQinase)
Procedure: as §1

[4] = target: T4, JNK2 (Homo sapiens, UniProt P45984)
T4 construct: purchased Reaction Biology Europe GmbH (formerly ProQinase)
Procedure: as §1

[5] = target: T5, NEK9 (Homo sapiens, UniProt Q8TD19)
T5 construct: purchased Reaction Biology Europe GmbH (formerly ProQinase)
T5 sequence (Q8TD19 1-979): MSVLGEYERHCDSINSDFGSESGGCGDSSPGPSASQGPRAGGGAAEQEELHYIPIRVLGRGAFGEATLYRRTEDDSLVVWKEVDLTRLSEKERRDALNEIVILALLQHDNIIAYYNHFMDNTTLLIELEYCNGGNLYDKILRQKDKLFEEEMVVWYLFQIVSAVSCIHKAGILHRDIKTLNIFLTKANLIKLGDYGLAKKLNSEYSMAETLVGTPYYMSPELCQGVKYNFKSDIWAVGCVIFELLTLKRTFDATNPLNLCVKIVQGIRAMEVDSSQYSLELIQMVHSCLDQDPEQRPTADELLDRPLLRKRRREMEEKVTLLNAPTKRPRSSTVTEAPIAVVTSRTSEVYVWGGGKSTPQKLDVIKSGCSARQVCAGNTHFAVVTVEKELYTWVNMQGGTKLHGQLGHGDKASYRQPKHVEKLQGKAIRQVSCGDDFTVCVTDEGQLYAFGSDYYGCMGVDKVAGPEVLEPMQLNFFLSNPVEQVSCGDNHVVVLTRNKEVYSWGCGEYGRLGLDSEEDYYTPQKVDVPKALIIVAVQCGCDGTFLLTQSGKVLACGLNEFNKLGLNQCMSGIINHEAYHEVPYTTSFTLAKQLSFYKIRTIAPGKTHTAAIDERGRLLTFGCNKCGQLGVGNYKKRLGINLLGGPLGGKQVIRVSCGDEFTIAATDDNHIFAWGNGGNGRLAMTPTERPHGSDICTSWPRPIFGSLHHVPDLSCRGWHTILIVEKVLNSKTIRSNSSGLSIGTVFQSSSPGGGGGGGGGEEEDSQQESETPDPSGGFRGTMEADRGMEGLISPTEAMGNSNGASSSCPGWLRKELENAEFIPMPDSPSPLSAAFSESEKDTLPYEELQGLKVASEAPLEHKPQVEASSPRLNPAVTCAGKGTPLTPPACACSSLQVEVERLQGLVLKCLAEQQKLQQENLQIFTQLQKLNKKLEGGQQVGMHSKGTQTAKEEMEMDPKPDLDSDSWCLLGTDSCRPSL
Procedure: as §1

[6] = target: T6, PRKG1 (Homo sapiens, UniProt Q13976)
T6 construct: purchased Reaction Biology Europe GmbH (formerly ProQinase)
T6 sequence (Q13976 1-671): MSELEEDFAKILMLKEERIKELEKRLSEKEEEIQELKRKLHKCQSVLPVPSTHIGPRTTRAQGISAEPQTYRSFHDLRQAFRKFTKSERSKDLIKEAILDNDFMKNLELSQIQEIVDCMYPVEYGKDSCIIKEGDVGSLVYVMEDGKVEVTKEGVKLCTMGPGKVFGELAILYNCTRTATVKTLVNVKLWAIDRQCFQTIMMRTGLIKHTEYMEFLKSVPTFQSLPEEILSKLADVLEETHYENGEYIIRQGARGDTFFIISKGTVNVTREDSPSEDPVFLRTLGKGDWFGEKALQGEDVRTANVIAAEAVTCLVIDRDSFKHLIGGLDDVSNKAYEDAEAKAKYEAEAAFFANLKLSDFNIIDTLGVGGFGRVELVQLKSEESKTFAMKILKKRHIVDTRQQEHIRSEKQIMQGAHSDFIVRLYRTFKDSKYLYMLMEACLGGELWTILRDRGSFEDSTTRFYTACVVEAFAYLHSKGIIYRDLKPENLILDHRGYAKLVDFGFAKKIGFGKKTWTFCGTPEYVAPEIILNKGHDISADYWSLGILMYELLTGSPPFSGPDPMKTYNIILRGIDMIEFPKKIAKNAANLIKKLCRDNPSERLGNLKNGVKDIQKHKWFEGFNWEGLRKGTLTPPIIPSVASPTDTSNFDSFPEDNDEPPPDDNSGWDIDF
Procedure: as §1

[7] = target: T7, VEGFR3 (Homo sapiens, UniProt P35916)
T7 construct: purchased Reaction Biology Europe GmbH (formerly ProQinase)
Procedure: as §1

[8] = target: T8, p38β (Homo sapiens, UniProt Q15759)
T8 construct: purchased Reaction Biology Europe GmbH (formerly ProQinase)
Procedure: as §1

T8 sequence (Q15759 whole entry): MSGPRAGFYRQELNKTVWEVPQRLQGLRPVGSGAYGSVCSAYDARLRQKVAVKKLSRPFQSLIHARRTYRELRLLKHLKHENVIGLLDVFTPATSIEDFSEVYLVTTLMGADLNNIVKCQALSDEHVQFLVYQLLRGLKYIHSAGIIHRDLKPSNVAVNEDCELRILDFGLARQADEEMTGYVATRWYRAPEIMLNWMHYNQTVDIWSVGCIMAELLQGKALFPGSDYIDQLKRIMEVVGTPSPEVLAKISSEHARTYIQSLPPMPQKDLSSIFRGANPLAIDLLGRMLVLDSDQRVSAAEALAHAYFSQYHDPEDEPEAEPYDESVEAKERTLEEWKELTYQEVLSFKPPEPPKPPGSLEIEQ
T3 sequence (P53355 whole entry): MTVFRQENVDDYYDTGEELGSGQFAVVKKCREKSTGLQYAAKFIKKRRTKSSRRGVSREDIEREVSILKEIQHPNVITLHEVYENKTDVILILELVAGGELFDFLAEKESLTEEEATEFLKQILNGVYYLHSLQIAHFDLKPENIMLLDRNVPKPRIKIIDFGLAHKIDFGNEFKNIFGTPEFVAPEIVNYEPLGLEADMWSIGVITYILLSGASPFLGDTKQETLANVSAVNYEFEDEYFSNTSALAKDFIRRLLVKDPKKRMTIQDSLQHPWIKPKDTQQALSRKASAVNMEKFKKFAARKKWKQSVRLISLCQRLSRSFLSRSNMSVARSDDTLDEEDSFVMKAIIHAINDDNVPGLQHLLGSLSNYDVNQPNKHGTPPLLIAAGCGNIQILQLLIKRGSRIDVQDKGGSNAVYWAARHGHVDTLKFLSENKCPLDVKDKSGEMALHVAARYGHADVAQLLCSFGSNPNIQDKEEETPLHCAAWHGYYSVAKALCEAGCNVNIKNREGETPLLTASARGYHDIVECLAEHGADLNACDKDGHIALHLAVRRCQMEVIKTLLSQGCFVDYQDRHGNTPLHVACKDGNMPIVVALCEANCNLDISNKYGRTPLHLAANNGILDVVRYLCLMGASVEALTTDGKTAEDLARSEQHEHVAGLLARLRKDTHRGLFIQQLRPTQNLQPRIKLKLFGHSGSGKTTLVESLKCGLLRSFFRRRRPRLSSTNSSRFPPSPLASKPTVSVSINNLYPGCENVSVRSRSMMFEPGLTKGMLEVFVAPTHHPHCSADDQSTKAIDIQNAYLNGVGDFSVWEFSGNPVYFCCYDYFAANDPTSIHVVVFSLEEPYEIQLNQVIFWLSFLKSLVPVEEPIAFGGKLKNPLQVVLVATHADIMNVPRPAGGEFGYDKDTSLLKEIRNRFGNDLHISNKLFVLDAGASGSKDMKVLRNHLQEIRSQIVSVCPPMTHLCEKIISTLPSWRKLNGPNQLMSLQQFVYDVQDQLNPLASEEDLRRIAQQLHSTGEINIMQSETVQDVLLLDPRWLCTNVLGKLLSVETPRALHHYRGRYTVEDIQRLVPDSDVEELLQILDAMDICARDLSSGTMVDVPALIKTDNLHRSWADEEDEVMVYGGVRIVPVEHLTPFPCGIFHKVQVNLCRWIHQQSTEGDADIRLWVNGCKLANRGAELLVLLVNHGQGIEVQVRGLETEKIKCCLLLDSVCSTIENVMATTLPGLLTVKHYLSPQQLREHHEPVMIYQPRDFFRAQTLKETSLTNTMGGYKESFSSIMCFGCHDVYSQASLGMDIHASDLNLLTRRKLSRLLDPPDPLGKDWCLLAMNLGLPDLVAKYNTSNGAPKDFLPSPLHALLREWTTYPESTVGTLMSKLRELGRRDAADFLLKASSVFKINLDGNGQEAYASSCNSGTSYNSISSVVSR
T7 sequence (P35916 25-1363): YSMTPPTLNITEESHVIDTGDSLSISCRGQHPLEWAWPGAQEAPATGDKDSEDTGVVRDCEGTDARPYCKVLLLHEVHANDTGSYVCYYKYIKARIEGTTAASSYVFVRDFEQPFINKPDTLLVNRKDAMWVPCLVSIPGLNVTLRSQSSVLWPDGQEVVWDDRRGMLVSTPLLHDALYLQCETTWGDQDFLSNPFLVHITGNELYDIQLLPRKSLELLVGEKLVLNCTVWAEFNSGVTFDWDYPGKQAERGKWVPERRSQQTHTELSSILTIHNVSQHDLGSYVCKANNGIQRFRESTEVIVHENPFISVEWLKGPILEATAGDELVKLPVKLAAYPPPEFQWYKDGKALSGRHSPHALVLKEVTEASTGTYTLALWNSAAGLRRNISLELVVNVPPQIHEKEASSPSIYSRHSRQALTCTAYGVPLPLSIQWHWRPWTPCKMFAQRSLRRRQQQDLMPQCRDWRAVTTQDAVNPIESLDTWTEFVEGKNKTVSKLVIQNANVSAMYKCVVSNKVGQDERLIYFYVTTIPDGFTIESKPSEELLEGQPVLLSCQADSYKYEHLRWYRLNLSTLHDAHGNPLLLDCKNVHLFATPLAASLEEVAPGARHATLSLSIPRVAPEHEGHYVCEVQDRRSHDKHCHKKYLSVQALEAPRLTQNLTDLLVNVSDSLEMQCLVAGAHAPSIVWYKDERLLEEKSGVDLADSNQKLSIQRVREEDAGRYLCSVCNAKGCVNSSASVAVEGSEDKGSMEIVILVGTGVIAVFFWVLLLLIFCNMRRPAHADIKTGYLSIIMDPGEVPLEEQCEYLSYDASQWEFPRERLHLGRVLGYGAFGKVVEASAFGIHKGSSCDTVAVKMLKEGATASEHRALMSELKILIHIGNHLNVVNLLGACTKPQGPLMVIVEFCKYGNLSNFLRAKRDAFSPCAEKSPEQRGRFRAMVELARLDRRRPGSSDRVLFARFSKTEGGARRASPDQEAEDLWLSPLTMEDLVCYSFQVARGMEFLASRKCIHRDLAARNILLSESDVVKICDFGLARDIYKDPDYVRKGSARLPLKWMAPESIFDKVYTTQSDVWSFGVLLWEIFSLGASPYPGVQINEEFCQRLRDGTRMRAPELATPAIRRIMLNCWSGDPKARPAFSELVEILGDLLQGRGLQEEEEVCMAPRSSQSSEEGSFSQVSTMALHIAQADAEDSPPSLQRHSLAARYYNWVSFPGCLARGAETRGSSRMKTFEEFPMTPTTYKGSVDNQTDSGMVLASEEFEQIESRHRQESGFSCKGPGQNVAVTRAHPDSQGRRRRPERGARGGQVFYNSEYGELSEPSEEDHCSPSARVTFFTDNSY
T4 sequence (P45984 whole entry): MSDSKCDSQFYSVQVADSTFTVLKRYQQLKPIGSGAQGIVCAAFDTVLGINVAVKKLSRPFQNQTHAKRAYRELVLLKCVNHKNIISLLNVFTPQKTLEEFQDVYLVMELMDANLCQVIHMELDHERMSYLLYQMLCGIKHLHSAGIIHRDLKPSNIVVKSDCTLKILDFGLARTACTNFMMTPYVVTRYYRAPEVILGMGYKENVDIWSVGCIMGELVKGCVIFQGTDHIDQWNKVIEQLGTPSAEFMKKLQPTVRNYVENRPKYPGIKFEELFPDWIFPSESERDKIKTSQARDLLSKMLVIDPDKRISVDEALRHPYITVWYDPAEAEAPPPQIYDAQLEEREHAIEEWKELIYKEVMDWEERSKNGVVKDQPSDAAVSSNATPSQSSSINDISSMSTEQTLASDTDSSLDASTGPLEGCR
T1 sequence (P00519 whole entry): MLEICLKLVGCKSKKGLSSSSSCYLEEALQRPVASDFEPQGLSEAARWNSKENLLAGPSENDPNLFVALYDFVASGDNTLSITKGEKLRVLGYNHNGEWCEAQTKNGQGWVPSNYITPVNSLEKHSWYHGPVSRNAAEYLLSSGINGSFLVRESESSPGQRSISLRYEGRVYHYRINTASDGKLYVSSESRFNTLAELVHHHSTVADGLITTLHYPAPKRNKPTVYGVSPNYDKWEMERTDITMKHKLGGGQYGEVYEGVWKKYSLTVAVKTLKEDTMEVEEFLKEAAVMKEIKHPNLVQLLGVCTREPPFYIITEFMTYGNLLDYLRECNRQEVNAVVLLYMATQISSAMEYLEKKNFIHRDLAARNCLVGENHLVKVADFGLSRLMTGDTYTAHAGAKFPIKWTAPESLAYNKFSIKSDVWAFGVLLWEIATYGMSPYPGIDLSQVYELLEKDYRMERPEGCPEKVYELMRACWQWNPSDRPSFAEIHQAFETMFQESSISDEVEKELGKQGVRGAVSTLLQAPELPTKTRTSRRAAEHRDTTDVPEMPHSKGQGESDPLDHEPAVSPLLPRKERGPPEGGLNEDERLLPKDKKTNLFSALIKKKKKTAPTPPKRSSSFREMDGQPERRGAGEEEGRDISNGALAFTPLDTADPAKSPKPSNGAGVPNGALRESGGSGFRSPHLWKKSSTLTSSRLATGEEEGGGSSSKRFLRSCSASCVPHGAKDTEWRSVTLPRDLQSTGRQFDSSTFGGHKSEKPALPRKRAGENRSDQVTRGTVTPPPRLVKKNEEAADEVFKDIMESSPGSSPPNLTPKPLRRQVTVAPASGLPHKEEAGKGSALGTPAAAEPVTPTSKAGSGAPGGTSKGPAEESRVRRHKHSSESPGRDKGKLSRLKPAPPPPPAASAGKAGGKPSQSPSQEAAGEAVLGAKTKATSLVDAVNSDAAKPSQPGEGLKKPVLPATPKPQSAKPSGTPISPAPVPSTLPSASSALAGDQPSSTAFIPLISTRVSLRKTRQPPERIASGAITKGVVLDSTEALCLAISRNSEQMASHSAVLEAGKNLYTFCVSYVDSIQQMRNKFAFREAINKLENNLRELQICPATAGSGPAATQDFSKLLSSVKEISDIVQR

Structure (SMILES)	residual kinase activity ([1]; 0.3 µM)	residual kinase activity ([2]; 0.3 µM)	residual kinase activity ([3]; 0.3 µM)	residual kinase activity ([4]; 0.3 µM)	residual kinase activity ([5]; 0.3 µM)	residual kinase activity ([6]; 0.3 µM)	residual kinase activity ([7]; 0.3 µM)	residual kinase activity ([8]; 0.3 µM)	further results
c1ccc(CNc2cc(-c3c[nH]c4ncccc34)ccn2)cc1 [meriolin 36]	80 % of control	75 % of control	119 % of control	63 % of control	88 % of control	6 % of control	64 % of control	77 % of control	residual kinase activity ([1]; 3 µM): 26 % of control; residual kinase activity ([2]; 3 µM): 28 % of control; residual kinase activity ([3]; 3 µM): 64 % of control; residual kinase activity ([4]; 3 µM): 29 % of control; residual kinase activity ([5]; 3 µM): 67 % of control; residual kinase activity ([6]; 3 µM): 1 % of control; residual kinase activity ([7]; 3 µM): 23 % of control; residual kinase activity ([8]; 3 µM): 84 % of control
COc1ccnc2[nH]cc(-c3cc(N)nc(N)c3)c12 [meriolin 16]	99 % of control	75 % of control	72 % of control	85 % of control	87 % of control	30 % of control	77 % of control	88 % of control	residual kinase activity ([1]; 0.03 µM): 103 % of control; residual kinase activity ([2]; 0.03 µM): 101 % of control; residual kinase activity ([3]; 0.03 µM): 112 % of control; residual kinase activity ([4]; 0.03 µM): 78 % of control; residual kinase activity ([5]; 0.03 µM): 89 % of control; residual kinase activity ([6]; 0.03 µM): 75 % of control; residual kinase activity ([7]; 0.03 µM): 90 % of control; residual kinase activity ([8]; 0.03 µM): 79 % of control
